Results as given in the METLIN SMRT retention time set (Domingo-Almenara et al. 2019).

Assay: gradient 5% acetonitrile 3 min, to 50% in 2 min, to 85% in 15 min, held 3 min, 100 µL/min
Conditions: column: Zorbax Extend-C18 2.1 x 50 mm; eluents: water / acetonitrile, 0.1% formic acid
In short: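 Mixtures of ~100 pure standards were chromatographed on a Zorbax Extend-C18 column (2.1 × 50 mm, 1.8 μm) at 100 μL/min using water and acetonitrile, each with 0.1% formic acid. Detection used a quadrupole time-of-flight mass spectrometer in positive and negative ionization mode, and data collection spanned 3 months. Retention time was obtained from adduct peaks picked computationally and each checked manually.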

## CCc1ccc(NC(=O)C2CCN(C(=O)c3ncn4c3COC(c3ccc(F)cc3)C4)CC2)cc1 (centres undefined)
  RP-LC retention time: 890 s

## CCc1nc2cc(-c3noc(CCc4c[nH]c5ccccc45)n3)ccc2o1
  RP-LC retention time: 1050 s

## Cc1c(C(=O)N2CCCC2)cnn1-c1ncccc1-c1nc(C2CC2)no1
  RP-LC retention time: 706 s

## CC(C)CNC(=O)c1ccc(-c2nnc3ccc(NC(=O)C4CC4)cn23)cc1
  RP-LC retention time: 708 s

## CCc1ccc(NC(=O)Cn2nc3c(Oc4cc(C)cc(C)c4)nccn3c2=O)cc1
  RP-LC retention time: 943 s

## Cc1ccc(-c2noc(Cc3nnc(-c4ccc(F)cc4)o3)n2)cc1C
  RP-LC retention time: 1120 s

## Cc1ccc(NC(=O)N2CCC(c3nc(C(=O)N(C)C)c(C)o3)CC2)cc1
  RP-LC retention time: 705 s

## Cc1c(OCC(N)=O)ccc2c1O/C(=C\c1ccc3c(c1)OCO3)C2=O
  RP-LC retention time: 714 s

## CCOCc1nc2c(N)nc3ccccc3c2n1CC(C)(C)O
  RP-LC retention time: 662 s

## CCCn1cc(CCNC(=O)Nc2ccccc2Cl)c2cccnc21
  RP-LC retention time: 812 s

## COc1cc(NC(=O)N(C)Cc2nc3cc(C(=O)N(C)C)ccc3n2C)cc(OC)c1
  RP-LC retention time: 610 s

## CCNC(=O)C1CCCN(c2nc3ncn(CC(=O)Nc4ccc5c(c4)CCC5)c(=O)c3s2)C1 (centres undefined)
  RP-LC retention time: 717 s

## CCOc1ccc(NC(=O)c2oc3ccc(CC)cc3c2C)c2cccnc12
  RP-LC retention time: 837 s

## Cc1noc(C)c1S(=O)(=O)N[C@@H]1CN(Cc2ccccc2)C[C@H]1CN(C)C
  RP-LC retention time: 570 s

## CCCCn1c(=O)c2ccccc2n(Cc2nc(-c3ccc(OC)cc3)no2)c1=O
  RP-LC retention time: 1160 s

## CC(=O)Oc1ccccc1C1=NN(C(C)=O)C(c2ccccc2Cl)O1 (centres undefined)
  RP-LC retention time: 974 s

## O=C(NCc1ccc2c(c1)OCO2)c1nn(-c2ccccc2)c2ccccc2c1=O
  RP-LC retention time: 831 s

## CCN1CCCn2cc(S(=O)(=O)NCc3cccc(F)c3)cc2C1=O
  RP-LC retention time: 754 s

## Cc1cccc(Sc2nccnc2N2CCC(C(=O)NCc3ccccc3)CC2)c1
  RP-LC retention time: 1060 s

## Cc1ccc(-n2nnnc2CNC(=O)Nc2ccc(Cl)c(Cl)c2)cc1C
  RP-LC retention time: 944 s

## CCc1nn2c(CNS(=O)(=O)c3cc(F)cc(F)c3)c(-c3ccccc3)nc2s1
  RP-LC retention time: 963 s

## CC1=NS(=O)(=O)N(C)C=C1C(=O)OCc1nc(Cc2ccc(C)cc2)no1
  RP-LC retention time: 956 s

## O=C1NC(=O)/C(=C/c2ccc(C(=O)Nc3ccc(C(=O)O)cc3)cc2)S1
  RP-LC retention time: 648 s

## Cc1ccc(C(=O)NCc2ccc3c(c2)ncn3C)s1
  RP-LC retention time: 604 s

## COc1ccc(-c2cc(N3CCN(C(=O)c4ccc(C(C)(C)C)cc4)CC3)ncn2)cc1
  RP-LC retention time: 795 s

## O=C(NCc1ccccc1Cl)c1cn2c(n1)CCCC2
  RP-LC retention time: 613 s

## Cc1cc(OCC(=O)Nc2ccccc2C#N)nc(-c2ccc(F)cc2)n1
  RP-LC retention time: 964 s

## O=C(NCc1ccc(F)cc1)N1CCCC1c1nc(-c2ccc(F)cc2F)no1 (centres undefined)
  RP-LC retention time: 897 s

## Cn1nnnc1NCc1ccc2c(c1)n(C)c(=O)n2C
  RP-LC retention time: 597 s

## CC(C)CCNC(=O)C1Cn2cccc2C(=O)N1C (centres undefined)
  RP-LC retention time: 668 s

## CCOc1ccc(CC(=O)NCC2CCN(Cc3ccco3)CC2)cc1
  RP-LC retention time: 558 s

## CCOc1ccc(NS(=O)(=O)c2cc(C(=O)N3CCN(c4ccccn4)CC3)n[nH]2)cc1
  RP-LC retention time: 619 s

## O=c1ccc(-c2ccccc2)nn1Cc1nc(-c2cccc(Cl)c2)no1
  RP-LC retention time: 1100 s

## Cn1nc(-c2nnc(-c3ccccc3Cl)o2)c2c1CCN(C(=O)Nc1ccccc1)C2
  RP-LC retention time: 849 s

## CN(Cc1ccccc1)C(=O)CN1C(=O)C2CCCCN2c2ccc(S(=O)(=O)N3CCCC3)cc21 (centres undefined)
  RP-LC retention time: 987 s

## COc1cccc(-c2nnc(-c3ccc(-n4ccnc4)nc3)o2)c1
  RP-LC retention time: 654 s

## N#Cc1ccc(C(=O)NC(Cc2ccccc2)c2nnc(N3CCCC3)o2)cc1 (centres undefined)
  RP-LC retention time: 778 s

## O=C(Cc1ccc(F)cc1)Nc1ccc(-c2cn3c(C(=O)N4CCCC4)csc3n2)cc1
  RP-LC retention time: 783 s

## O=C(Nc1cc(-c2ccccn2)no1)C1CCCC1
  RP-LC retention time: 765 s

## COCc1nncn1C1CN(C(=O)Cc2cc(OC)ccc2OC)C1
  RP-LC retention time: 610 s

## CCCN1CCN(C(=O)Cn2nc(C)c3sc(-c4ccccc4)nc3c2=O)CC1
  RP-LC retention time: 623 s

## COc1ccc(CN2C=C(C(=O)OCc3ccccc3Cl)C(C)=NS2(=O)=O)cc1
  RP-LC retention time: 1170 s

## O=c1c(NCCc2ccncc2)nc2ccncc2n1Cc1ccccc1
  RP-LC retention time: 553 s

## COc1cccc(CN2CC(c3nc(CCOCc4ccccc4)no3)C2)c1
  RP-LC retention time: 708 s

## CCCN(CC(=O)N1CCc2sccc2C1COc1ccccc1OC)C(=O)C1CC1 (centres undefined)
  RP-LC retention time: 922 s

## O=C(c1ccncc1)N1CCc2c([nH]c3ccccc23)C1c1ccccc1 (centres undefined)
  RP-LC retention time: 862 s

## O=C(c1ccnnc1)N1C[C@@H](COCC2CC2)[C@H](c2ccncc2)C1
  RP-LC retention time: 570 s

## CCn1cnc(S(=O)(=O)N2CCC(C(=O)Nc3nc4ccc(C)cc4s3)CC2)c1
  RP-LC retention time: 812 s

## O=C(c1cc(-c2ccccn2)n[nH]1)N1CCN(C(=O)C2CCC2)CC1
  RP-LC retention time: 612 s

## CC(=O)Nc1ccc(C(=O)NCCNC(=O)CC(c2ccccc2)c2ccccc2)cc1
  RP-LC retention time: 697 s

## COCCN(CC(=O)N1CCc2sccc2C1COc1ccccc1F)C(=O)C(C)C (centres undefined)
  RP-LC retention time: 912 s

## Cc1ccc(C)c(CNS(=O)(=O)c2c(C)sc(C)c2-c2n[nH]c(C)c2C)c1
  RP-LC retention time: 1150 s

## O=C(NCc1ccccc1)C(=O)NCC1OCCc2ccccc21 (centres undefined)
  RP-LC retention time: 893 s

## CCN1CCn2cc(S(=O)(=O)Nc3ccc(Cl)cc3F)cc2C1=O
  RP-LC retention time: 752 s

## O=C(Cc1nnc(-c2ccc3ncccc3c2)o1)NC1CCCCC1
  RP-LC retention time: 679 s

## COc1cccc(S(=O)(=O)N2C[C@@H]3C[C@H]2C[C@@H]3NC(=O)c2ccccc2)c1
  RP-LC retention time: 840 s

## N#Cc1cccc(S(=O)(=O)N2CCC(c3cc(N)on3)CC2)c1
  RP-LC retention time: 743 s

## O=C(c1cccnc1)N1CC(n2cc(COCC3CC3)nn2)C1
  RP-LC retention time: 597 s

## Cc1ccccc1NC(=O)N1C[C@@H]2CN(S(=O)(=O)c3ccc(F)cc3)C[C@H](C1)O2
  RP-LC retention time: 786 s

## COc1ccc(OC)c(-c2ccc(=O)n(CCNC(=O)C(C)Oc3ccccc3F)n2)c1 (centres undefined)
  RP-LC retention time: 754 s

## Cc1ccc(N(C)C(=O)c2nc(N3CCSCC3)c3cnn(C)c3n2)cc1
  RP-LC retention time: 812 s

## O=S(=O)(c1ccc2c(c1)OCCO2)N1CCCn2nc(-c3cccc(Cl)c3)cc2C1
  RP-LC retention time: 1040 s

## Cc1cc(NC(=O)COc2cccc3c(=O)n(C)ccc23)no1
  RP-LC retention time: 660 s

## Cn1cccc1C(=O)C(=O)Nc1ccc(Cl)cc1F
  RP-LC retention time: 1080 s

## CCC1(O)CCC12CCN(C(=O)C1CCCC1)CC2 (centres undefined)
  RP-LC retention time: 773 s

## CCOC(=O)c1cccc(NS(=O)(=O)c2cc(-c3c(CC)noc3NC(C)=O)ccc2OC)c1
  RP-LC retention time: 814 s

## CCOC(=O)/C=C/c1ccc(O)c(OC)c1
  RP-LC retention time: 749 s

## CCOc1ccc(S(=O)(=O)N2CCC3(CC2)CN(C)CC3c2nnc(CC)o2)cc1 (centres undefined)
  RP-LC retention time: 638 s

## COc1ccc(Cn2nnc(C(=O)NCC3CC3)c2-n2cccc2)cc1
  RP-LC retention time: 924 s

## O=C(Cc1ccccc1)N1CCCCC1c1nc(-c2cnccn2)no1 (centres undefined)
  RP-LC retention time: 812 s

## CC(C)CCNC(=O)c1ccc(-c2nc3cccnc3n2C2CCCCC2)cc1
  RP-LC retention time: 1020 s

## CCc1nc(OCC(=O)Nc2ccc(F)c(Cl)c2)c2ccccc2n1
  RP-LC retention time: 888 s

## O=C(NCc1cccs1)c1cccn1Cc1noc(-c2ccc(Cl)cc2)n1
  RP-LC retention time: 1080 s

## CS(=O)(=O)N1CCC(C(=O)NC2CCCCCCC2)Oc2ccc(Cl)cc21 (centres undefined)
  RP-LC retention time: 1070 s

## O=C(NCc1cccc(Br)c1)C1CCCN(c2ccc(=O)n(-c3cccc(F)c3)n2)C1 (centres undefined)
  RP-LC retention time: 899 s

## COC(=O)c1c(NCc2ccc(C(F)(F)F)cc2)c2cc(F)ccc2[nH]c1=O
  RP-LC retention time: 840 s

## CCc1ccc(NS(=O)(=O)c2ccc(-c3c(C)noc3C)cc2)cc1
  RP-LC retention time: 996 s

## CC(=O)Nc1nsc(N2CCC(C(=O)NCc3ccc4c(c3)OCO4)CC2)n1
  RP-LC retention time: 641 s

## Cn1cnc(S(=O)(=O)N2CCC(C(=O)NCc3ccccc3Cl)CC2)c1
  RP-LC retention time: 695 s

## O=C(c1ccc[nH]1)N1CCN(C(=O)c2ccco2)CC1
  RP-LC retention time: 600 s

## Cc1nc(-c2csc(S(=O)(=O)N3CCCC(C(=O)NCc4ccc5c(c4)OCO5)C3)c2)no1 (centres undefined)
  RP-LC retention time: 880 s

## O=C(NCc1cccs1)c1c(O)c2cccnc2n(-c2cccc(F)c2)c1=O
  RP-LC retention time: 1120 s

## Cc1nn(C(C)C(=O)Nc2cccc(Cl)c2)c(=O)c2c(-n3cccc3)n(-c3ccccc3)nc12 (centres undefined)
  RP-LC retention time: 1200 s

## CCc1nc2ccccc2n1CC(O)COc1cc(C)c(Cl)c(C)c1 (centres undefined)
  RP-LC retention time: 770 s

## CN(C)S(=O)(=O)c1ccc2c(c1)N(CC(=O)NCc1ccccn1)C(=O)C1CCCCN21 (centres undefined)
  RP-LC retention time: 646 s

## Cn1c(N2CCCN(C(=O)c3ccc(Br)o3)CC2)cc(=O)n(C)c1=O
  RP-LC retention time: 653 s

## COc1ccccc1CNC(=O)C1c2ccccc2C(=O)N2CCc3cc(OC)c(OC)cc3C12 (centres undefined)
  RP-LC retention time: 735 s

## Cc1ccc(NC(=O)Cn2ccc3sccc3c2=O)c(Cl)c1
  RP-LC retention time: 802 s

## CC1CCN(CCCNC(=O)C2CCc3sc(C(=O)N4CCCC4)cc3C2)CC1 (centres undefined)
  RP-LC retention time: 610 s
